This is an account of results in patent US6875746B1, “Anticancer anthraquinones and method of use thereof” (Board of Trustees of Michigan State University, priority 2002, dated 2005).

One assay concerns HCT-116 (colon). The experiment in a line: cancer cell growth inhibition assay (sulforhodamine B), HCT-116. In kind it is cell-based. The conditions noted are these: Homo sapiens, read-out: GI50 ± SE, HCT-116 (colon). As to the method: (§1) The compounds were tested for their activity against breast, central nervous system (CNS), colon, and lung human tumor cell lines. The breast (MCF-7), CNS(SF-268), and lung (NCI-H460) cultures were purchased from the National Cancer Institute (Bethesda, Md.) while the colon culture (HCT-116) was purchased from the American Type Culture Collection (Arlington, Va.). All cell lines were maintained in a humidified chamber at 37° C. with 5% CO2 in RPMI-1640 medium supplemented with 10% fetal bovine serum, penicillin (1 unit/100 mL), and streptomycin (1 μg/100 mL). All cell lines were sub-cultured according to their individual growth profiles in order to ensure exponential growth throughout the experiments. Breast (10,000 cells/well), CNS (15,000 cells/well), colon (7,500 cells/well), and lung (7,500 cells/well) cancer cells were aliquoted (100 μL) into 96-well plates and allowed to grow for 24 hours before the addition of the test compounds to the media. The compounds were dissolved in DMSO and diluted in sterile media as necessary to obtain the appropriate concentration. […] Test compounds, standards, and DMSO control were incubated for 48 hours, after which the assay was terminated via the addition of cold trichloroacetic acid. The plates were incubated for one hour at 4° C., washed with deionized water (five times), and air-dried. A 100 μL aliquot of 0.4% sulforhodamine B stain in 1% acetic acid was added to each well and the plates were incubated for 30 minutes at room temperature. Following incubation, the wells were rinsed with 1% acetic acid (five times) and the bound stain was dissolved in 100 μL of 10 mM TRIZMA base. The plates were shaken for five minutes on a gyrorotary shaker after which the absorbance of each well was recorded with an automated microplate reader (model EL800, Bio-Tek Instruments, Inc., Winooski, Vt.) at 515 nm. Three independent experiments were performed in triplicate using at least five drug concentrations inclusive of the 50% growth inhibitory concentration. Results are expressed as the concentration of compound required to inhibit cellular growth 50% (GI50) ±SE.

The test system of another assay is SF-268 (CNS). The experiment in a line: cancer cell growth inhibition assay (sulforhodamine B), SF-268. In kind it is cell-based. The note with it: Homo sapiens, read-out: GI50 ± SE, SF-268 (CNS). The procedure: as §1
The next assay has as its system MCF-7 (breast). Briefly: cancer cell growth inhibition assay (sulforhodamine B), MCF-7. The note with it: Homo sapiens, MCF7, read-out: GI50 ± SE, MCF-7 (breast). In kind it is cell-based. The procedure:
as §1

The next assay concerns NCI-H460 (lung). The experiment in a line: cancer cell growth inhibition assay (sulforhodamine B), NCI-H460. In kind it is cell-based. The note with it: Homo sapiens, read-out: GI50 ± SE, NCI-H460 (lung). As to the method: as §1
Assay [1] has as its system breast (MCF-7), CNS (SF-268), colon (HCT-116) and lung (NCI-H460) human tumor cell lines. The experiment in a line: cancer cell growth inhibition assay, statements on the four cell lines together. In kind it is cell-based. The conditions noted are these: MCF-7, SF-268, HCT-116, NCI-H460. As to the method: as §1, with “Results are expressed as the concentration of compound required to inhibit cellular growth 50% (GI50) ±SE.” left out

Assay [2] deals with SF-268 human CNS glioblastoma cells. Briefly: MTT cell viability assay, SF-268. Type of assay: cell-based. The note with it: at GI50 concentration, 48 hours, FIG. 5; compared with 8, 4, 6 and mixture 1a and 2a. As to the method:
(§2) In this example, compounds 1, 1a, 2, 2a, 3, 4, 6, and 8 were tested for cell toxicity using an 3-[4,5-dimethylthiazol-2-yl]-2,5-diphenyltetrazolium bromide (MTT) cell viability assay. The assay monitors the conversion of MTT to the dye, formazan, by viable cells. The formazan crystals form a precipitate which is dissolved in DMSO and analyzed by spectroscopy. MTT is not converted to formazan by dead cells. Therefore, the amount of dye detected is inversely related to the toxicity of the compound being tested.
(§3) The cancer cells used were HCT 116 (colon carcinoma, human, batch # F-11276), SF-268 (CNS, glioblastoma, human, 0503138), NCI-H460 (lung, large cell carcinoma, human, 503473), and MCF-7 (breast, mammary adenocarcinoma, human, 0501975) were procured from NCI, NIH.
(§4) The cells were grown in RPMI 1640 media supplemented with 10% fetal bovine serum and maintained at 37° C. in a humidified atmosphere of 5% CO2. Cells were seeded in 96 well plates at a density of 2000 cells per well. […] To each well, 200 μL of DMSO was added immediately, shaken for 5 min, and optical density of each well was recorded at 570 nm using Universal Microplate Reader. […]
(§5) The average optical densities of three wells for each sample tested and of DMSO control were calculated. The average optical densities of samples and of DMSO control from the replicates were then calculated. […]

Assay [3] concerns lung (A-549) tumor cell line. The note with it: Li and McLaughlin, J. Nat. Prod. 52: 660-662 (1989); cited from earlier work.
The test system of assay [4] is HCT 116 human colon carcinoma cells. The experiment in a line: MTT cell viability assay, HCT 116. In kind it is cell-based. The conditions noted are these: at GI50 concentration, 48 hours, FIG. 4. As to the method: as §2, §3, §4, §5
Assay [5] deals with nasal (KBMRI) tumor cell line. The conditions noted are these: Li and McLaughlin, J. Nat. Prod. 52: 660-662 (1989); cited from earlier work.
The test system of assay [6] is colon (HT-29) tumor cell line. The conditions noted are these: Li and McLaughlin, J. Nat. Prod. 52: 660-662 (1989); cited from earlier work.
Assay [7] deals with NCI-H460 human large cell carcinoma cells. The experiment in a line: MTT cell viability assay, NCI-H460. In kind it is cell-based. The conditions noted are these: at GI50 concentration, 48 hours, FIG. 6. The procedure: as §2, §3, §4, §5
Background: Tetrazolium dyes change colour on reduction, which living cells bring about.

Where [8] appears, read: adriamycin values expressed in μM (footnote a), 48 hours.
Setting [9] is: 48 hours incubation, sulforhodamine B stain.

In brackets after ≈: the same amount, converted by molar mass. Entries after “also recorded” stand apart in the source; their conditions may differ. Read-outs that look alike come from different tables or passages of the source.

In general, GI50 refers to the concentration at which growth is held to half of that of the control.

With `COc1cccc2c1C(=O)c1c(O)c3c(c(O)c1C2=O)C[C@@](O)(C(=O)CO)C[C@@H]3O[C@H]1C[C@H](N)[C@H](O)[C@H](C)O1` [adriamycin, reference compound], the GI50 in the assay on HCT-116 (colon) (setting [8]) stood at 2.1 ± 0.6 µM; with SF-268 (CNS) (setting [8]), 1.9 ± 0.7 µM; in the assay on MCF-7 (breast) (setting [8]), 1.7 ± 0.2 µM; in the assay on NCI-H460 (lung) (setting [8]), 1.7 ± 0.4 µM.
In the case of `Cc1cc2c(c(O)c1O)C(=O)c1c(O)cccc1C2=O` [compound 3, 1,2,8-trihydroxy-3-methyl anthraquinone], the GI50 in the assay on HCT-116 (colon) (setting [9]) amounted to 6.3 ± 0.8 mg/L; in the assay with SF-268 (CNS) (setting [9]), 2.4 ± 1.8 mg/L; in the assay on MCF-7 (breast) (setting [9]) it was 6.5 ± 1.2 mg/L; in the assay with NCI-H460 (lung) (setting [9]), 6.3 ± 0.8 mg/L. Also, in [1], the “activity against all four cancer cell lines (in words)” value (from here on “activity”) was “consistent activity”. Moreover, the “toxicity in MTT assay, SF-268 (CNS cancer)” value in assay [2] is recorded as “higher toxicity”. The “ED50, lung (A-549)” value in assay [3] is 3.1 mg/L (≈ 11.5 µM). Also, in assay [4], the “toxicity in MTT assay, HCT 116 (Colon cancer)” value is recorded as “higher toxicity than the rest of the anthraquinones”. Moreover, in assay [5], the ED50, nasal (KBMRI) is 5.7 mg/L (≈ 21.1 µM). In [6], the “ED50, colon (HT-29)” value is 2.8 mg/L (≈ 10.4 µM).
In the case of `O=C1c2cccc(O)c2C(=O)c2c1cc(CO)c(O)c2O` [compound 6, 1,2,8-trihydroxy-3-hydroxymethyl anthraquinone], the GI50 in the assay on HCT-116 (colon) (setting [9]) came to 5 ± 0.3 mg/L; in the assay on SF-268 (CNS) (setting [9]), 3.8 ± 0.7 mg/L; with MCF-7 (breast) (setting [9]), 2.8 ± 0.3 mg/L; in the assay with NCI-H460 (lung) (setting [9]), 7.3 ± 0.7 mg/L. Moreover, in [1], the “activity” value was “consistent activity; also recorded: concentrations similar to that of compound 3”.
Turning to `O=C(O)c1cc(O)c2c(c1)C(=O)c1cccc(O)c1C2=O` [compound 8, 1,8-dihydroxy-3-carboxy anthraquinone], the GI50 in the assay with HCT-116 (colon) (setting [9]) amounted to 21.1 ± 1.8 mg/L; in the assay on SF-268 (CNS) (setting [9]), 16.3 ± 1.8 mg/L; in the assay with MCF-7 (breast) (setting [9]), 17.2 ± 0.8 mg/L; in the assay with NCI-H460 (lung) (setting [9]), 15.4 ± 1.7 mg/L. The “activity” value in assay [1] was “moderate activity”. In addition, the “toxicity in MTT assay, NCI H460 (Lung cancer)” value in assay [7] is “lest toxic”.
